Where two headings read alike, the source gives them in different places.
Substance CC4RLYGFKCC4 has a ring closure, yield after HPLC (crosslinker bond, 29-membered ring, TCEP, dichloroacetone, phosphate buffer pH 8/DMF 1:2, 1.3 mM) of 8%.

Substance CC6RLYGFKCC6 has a ring closure, yield after HPLC (crosslinker bond, 27-membered ring, TCEP/K2CO3, CH2I2/NEt3, H2O/THF, 3.7 mM) of 19%.

CC7RLYGFKCC7 showed a ring closure, yield after HPLC (crosslinker bond, 33-membered ring, N-(4,6-divinylpyrimidin-2-yl)-N-methylglycine, phosphate buffer pH 8/DMF, 1.6 mM) of 17%.

In the case of CC8RLYGFKWC8, the ring closure, yield after HPLC (thioether bond, 27-membered ring, I2, H2O/MeCN, 0.46 mM) is reported as 25%.

GXC1RLYGFKWHXC1GG showed a ring closure, yield after HPLC (crosslinker bond, 39-membered ring, 3,5-diethynylbenzoic acid/CuSO4/THPTA/Na ascorbate, tBuOH/H2O 1:1, 0.48 mM) of 2%.

Work on JC2RLYGFKXC2 yielded a ring closure, yield after HPLC (triazole bond, 27-membered ring, CuSO4/Na ascorbate/DIEA, H2O, 1.3 mM) of 19%.

Substance JC3RLYGFKXC3 has a ring closure, yield after HPLC (triazole bond, 26-membered ring, [Cp*RuCl]4 30 mol%, tBuOH/H2O 1:1, 0.61 mM) of 3%.

Reference: article PMC9004346, “Development of small cyclic peptides targeting the CK2α/β interface” (Chemical Communications (Cambridge, England), 2022)
